How the values were obtained:
Set-up in all cases: agar dilution MIC, growth inhibition of clinical Burkholderia isolates
[1] = tested on: T1, B. multivorans AU25057; test: microbe, parasite or virus in culture; conditions: Burkholderia multivorans, AU25057
T1 construct: AU25057
How it was run: (§1)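 MICs by agar dilution against Bcc and B. gladioli clinical isolates, interpreted with CLSI breakpoints where available; K. pneumoniae ATCC 700603 (SHV-18) and ATCC BAA-1705 (KPC) served as quality controls.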

[2] = tested on: T2, B. multivorans AU22436; test: microbe, parasite or virus in culture; conditions: Burkholderia multivorans, AU22436
T2 construct: AU22436
How it was run: as §1

[3] = tested on: T3, B. multivorans AU12481; test: microbe, parasite or virus in culture; conditions: Burkholderia multivorans, AU12481
T3 construct: AU12481
How it was run: as §1

[4] = tested on: T4, B. multivorans AU14364; test: microbe, parasite or virus in culture; conditions: Burkholderia multivorans, AU14364
T4 construct: AU14364
How it was run: as §1

[5] = tested on: T5, B. cenocepacia AU0133; test: microbe, parasite or virus in culture; conditions: Burkholderia cenocepacia, AU0133
T5 construct: AU0133
How it was run: as §1

[6] = tested on: T6, B. vietnamiensis AU5003; test: microbe, parasite or virus in culture; conditions: Burkholderia vietnamiensis, AU5003
T6 construct: AU5003
How it was run: as §1

[7] = tested on: T7, B. vietnamiensis AU10214; test: microbe, parasite or virus in culture; conditions: Burkholderia vietnamiensis, AU10214
T7 construct: AU10214
How it was run: as §1

[8] = tested on: T8, B. multivorans AU23995; test: microbe, parasite or virus in culture; conditions: Burkholderia multivorans, AU23995
T8 construct: AU23995
How it was run: as §1

[9] = tested on: T9, B. ambifaria AU5203; test: microbe, parasite or virus in culture; conditions: Burkholderia ambifaria, AU5203
T9 construct: AU5203
How it was run: as §1

[10] = tested on: T10, B. multivorans AU30050; test: microbe, parasite or virus in culture; conditions: Burkholderia multivorans, AU30050
T10 construct: AU30050
How it was run: as §1

[11] = tested on: T11, B. multivorans AU29198; test: microbe, parasite or virus in culture; conditions: Burkholderia multivorans, AU29198
T11 construct: AU29198
How it was run: as §1

[12] = tested on: T12, B. cepacia AU11420; test: microbe, parasite or virus in culture; conditions: Burkholderia cepacia, AU11420
T12 construct: AU11420
How it was run: as §1

[13] = tested on: T13, B. multivorans AU30441; test: microbe, parasite or virus in culture; conditions: Burkholderia multivorans, AU30441
T13 construct: AU30441
How it was run: as §1

[14] = tested on: T14, B. gladioli AU29223; test: organism not typed
T14 construct: AU29223
How it was run: as §1

[15] = tested on: T15, B. dolosa AU9336; test: microbe, parasite or virus in culture; conditions: Burkholderia dolosa, AU9336
T15 construct: AU9336
How it was run: as §1

[16] = tested on: T16, B. contaminans AU21811; test: organism not typed
T16 construct: AU21811
How it was run: as §1

[17] = tested on: T17, B. vietnamiensis AU28891; test: microbe, parasite or virus in culture; conditions: Burkholderia vietnamiensis, AU28891
T17 construct: AU28891
How it was run: as §1

[18] = tested on: T18, B. seminalis AU14842; test: organism not typed
T18 construct: AU14842
How it was run: as §1

[19] = tested on: T19, B. cepacia AU29493; test: microbe, parasite or virus in culture; conditions: Burkholderia cepacia, AU29493
T19 construct: AU29493
How it was run: as §1

[20] = tested on: T20, B. stabilis AU9035; test: microbe, parasite or virus in culture; conditions: Burkholderia stabilis, AU9035
T20 construct: AU9035
How it was run: as §1

[21] = tested on: T21, B. multivorans AU11204; test: microbe, parasite or virus in culture; conditions: Burkholderia multivorans, AU11204
T21 construct: AU11204
How it was run: as §1

[22] = tested on: T22, Burkholderia cepacia complex Bcc Indeterminate AU12560; test: microbe, parasite or virus in culture; conditions: Burkholderia cepacia
T22 construct: AU12560
How it was run: as §1

Measured: MIC

CO/N=C(\C(=O)N[C@@H]1C(=O)N2C(C(=O)[O-])=C(C[N+]3(C)CCCC3)CS[C@H]12)c1csc(N)n1 [cefepime]
2 µg/mL: [3] | [10] | [13]
8 µg/mL: [1] | [2] | [7] | [17]
32 µg/mL: [20] | [22]
16 µg/mL: [5] | [9] | [14] | [18]
4 µg/mL: [21]
> 32 µg/mL: all other assays above

C[C@H]1COc2c(N3CCN(C)CC3)c(F)cc3c(=O)c(C(=O)O)cn1c23 [levofloxacin]
32 µg/mL: [4] | [15]
16 µg/mL: [20]
0.5 µg/mL: [14]
2 µg/mL: [13] | [21]
1 µg/mL: [10]
> 32 µg/mL: [2] | [9]
4 µg/mL: [3] | [5] | [8] | [12] | [18]
8 µg/mL: all other assays above

C[C@@H](O)[C@H]1C(=O)N2C(C(=O)O)=C(S[C@@H]3CN[C@H](C(=O)N(C)C)C3)[C@H](C)[C@H]12 [meropenem]
0.5 µg/mL: [7]
16 µg/mL: [11] | [16]
8 µg/mL: [2] | [8] | [12] | [13] | [15] | [19] | [20]
2 µg/mL: [3] | [10] | [17] | [21]
1 µg/mL: [14]
4 µg/mL: all other assays above

Source: article PMC10648927, “Examining the activity of cefepime-taniborbactam against Burkholderia cepacia complex and Burkholderia gladioli isolated from cystic fibrosis patients in the United States” (Antimicrobial Agents and Chemotherapy, 2023)
